Source: patent publication US11053253B2, “Macrocyclic compounds for treatment of medical disorders” (Achillion Pharmaceuticals, Inc., priority 2017, dated 2021)

Biological target: Human Factor D (Homo sapiens (Human), UniProt P00746)
Assay: Human Factor D Assay
Assay type: biochemical
Conditions: Human Factor D 80 nM, substrate Z-L-Lys-SBzl, DTNB, A405; read-out: IC50 (Stars)
Protocol: Example 2. Human Factor D Assay
Human Factor D (purified from human serum, Complement Technology, Inc.) at 80 nM final concentration is incubated with test compound at various concentrations for 5 min at room temperature in 50 mM Tris, 1M NaCl, pH 7.5. A synthetic substrate Z-L-Lys-SBzl and DTNB (Ellman's reagent) are added to final concentrations of 100 µM each. Absorbance at 405 nm (A405) is recorded at 30 second intervals for 30 minutes using a microplate spectrophotometer. IC50 values are calculated by nonlinear regression of Complement Factor D reaction rates as a function of test compound concentration.

Chain of Human Factor D (P00746 26-253): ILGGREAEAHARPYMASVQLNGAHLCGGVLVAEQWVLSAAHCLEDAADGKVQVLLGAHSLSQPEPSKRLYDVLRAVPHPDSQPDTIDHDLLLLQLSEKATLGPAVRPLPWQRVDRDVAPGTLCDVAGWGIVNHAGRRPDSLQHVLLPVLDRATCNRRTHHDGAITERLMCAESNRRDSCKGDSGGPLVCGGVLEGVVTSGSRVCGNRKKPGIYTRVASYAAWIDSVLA

Row | SMILES | IC50 [µM]
1 | CC(=O)c1nn(CC(=O)N2[C@H]3C[C@]4(C[C@@H]24)CN(C)CCCCCCc2ccc(Br)nc2NC3=O)c2cnc(-c3cnc(C)nc3)cc12 [Compound T-76] | < 1
2 | CC(=O)c1nn(CC(=O)N2[C@H]3C[C@@]4(COCC=CCOCc5ccc(Br)nc5NC3=O)C[C@@H]24)c2c(CF)cc(-c3cnc(C)nc3)cc12 [Compound T-77] | < 1
3 | CC(=O)c1nn(CC(=O)N2[C@H]3C[C@@]4(COCCCCOCc5ccc(Br)nc5NC3=O)C[C@@H]24)c2c(CF)cc(-c3cnc(C)nc3)cc12 [Compound T-78] | < 1
4 | CC(=O)c1nn2c3cc(c(-c4cnc(C)nc4)cc13)OCCC/C=C/COC[C@@]13C[C@@H](C(=O)Nc4nc(Br)ccc4C)N(C(=O)C2)[C@@H]1C3 [Compound T-79] | < 1
5 | CC(=O)c1nn2c3cc(c(-c4cnc(C)nc4)cc13)OCCC/C=C\COC[C@@]13C[C@@H](C(=O)Nc4nc(Br)ccc4C)N(C(=O)C2)[C@@H]1C3 [Compound T-80] | < 1
6 | CC(=O)c1nn2c3c(cc(-c4cnc(C)nc4)cc13)CC=CCCCC(=O)NC[C@@]13C[C@@H](C(=O)NCc4cccc(Cl)c4F)N(C(=O)C2)[C@@H]1C3 [Compound T-82] | < 1
7 | CC(=O)c1nn2c3c(cc(-c4cnc(C)nc4)cc13)CC=CCCCC(=O)NC[C@@]13C[C@@H](C(=O)Nc4nc(Br)c(F)cc4C)N(C(=O)C2)[C@@H]1C3 [Compound T-84] | < 1
8 | CC(=O)c1nn2c3c(cc(-c4cnc(C)nc4)cc13)CCCCCCC(=O)NC[C@@]13C[C@@H](C(=O)Nc4nc(Br)c(F)cc4C)N(C(=O)C2)[C@@H]1C3 [Compound T-85] | < 1
9 | CC(=O)c1nn2c3c(cc(-c4cnc(C)nc4)cc13)CCCCCCC(=O)NC[C@@]13C[C@@H](C(=O)NCc4cccc(Cl)c4F)N(C(=O)C2)[C@@H]1C3 [Compound T-86] | < 1
10 | CC(=O)c1nn(CC(=O)N2[C@H]3C[C@@]4(CCCCCCCOCc5ccc(Br)nc5NC3=O)C[C@@H]24)c2c(CF)cc(-c3cnc(C)nc3)cc12 [Compound T-87] | < 1
11 | CC(=O)c1nn(CC(=O)N2[C@H]3C[C@@]4(CCCCCCCOCc5ccc(Br)nc5NC3=O)C[C@@H]24)c2cnc(-c3cnc(C)nc3)cc12 [Compound T-88] | < 1
12 | CC(=O)c1nn(CC(=O)N2[C@H]3C[C@@]4(CCCC=CCOCc5ccc(Br)nc5NC3=O)C[C@@H]24)c2c(CF)cc(-c3cnc(C)nc3)cc12 [Compound T-89] | < 1
13 | CC(=O)c1nn2c3c(cc(-c4cnc(C)nc4)cc13)CCCCCCC(=O)NC[C@@]13C[C@@H](C(=O)Nc4cc(F)cc(Br)n4)N(C(=O)C2)[C@@H]1C3 [Compound T-90] | < 1
14 | CC(=O)c1nn2c3c(cc(-c4cnc(C)nc4)cc13)CC=CCCCC(=O)NC[C@@]13C[C@@H](C(=O)Nc4ccn(CC(F)(F)F)n4)N(C(=O)C2)[C@@H]1C3 [Compound T-91] | < 1
15 | CC(=O)c1nn2c3c(cc(-c4cnc(C)nc4)cc13)CCCCCCC(=O)NC[C@@]13C[C@@H](C(=O)Nc4ccn(CC(F)(F)F)n4)N(C(=O)C2)[C@@H]1C3 [Compound T-92] | < 1
16 | CC(=O)c1nn2c3c(cc(-c4cnc(C)nc4)cc13)CCCCCCC(=O)N(C)C[C@@]13C[C@@H](C(=O)Nc4nc(C(F)(F)F)ccc4C)N(C(=O)C2)[C@@H]1C3 [Compound T-93] | < 1
17 | CC(=O)c1nn2c3c(cc(-c4cnc(C)nc4)cc13)CC=CCCCC(=O)NC[C@@]13C[C@@H](C(=O)NCc4cccc(Cl)c4)N(C(=O)C2)[C@@H]1C3 [Compound T-94] | < 1
18 | CC(=O)c1nn2c3c(cc(-c4cnc(C)nc4)cc13)CCCCCCC(=O)NC[C@@]13C[C@@H](C(=O)NCc4cccc(Cl)c4)N(C(=O)C2)[C@@H]1C3 [Compound T-95] | < 1

Row | SMILES | IC50 [µM]
19 | CC(=O)N[C@@H]1CC=CCOCc2ccc(Br)nc2NC(=O)[C@@H]2C[C@]3(C[C@H]3N2C(=O)Cn2nc(C(C)=O)c3cc(-c4cnc(C)nc4)ccc32)CN(C)C1=O [Compound T-96] | < 1
20 | CC(=O)c1nn(CC(=O)N2[C@H]3C[C@@]4(CCCCCCCN(C)Cc5ccc(Br)nc5NC3=O)C[C@@H]24)c2c(CF)cc(-c3cnc(C)nc3)cc12 [Compound T-97] | < 1
21 | CC(=O)c1nn(CC(=O)N2[C@H]3C[C@@]4(CCCCCCCN(C)Cc5ccc(Br)nc5NC3=O)C[C@@H]24)c2cnc(-c3cnc(C)nc3)cc12 [Compound T-98] | < 1
22 | CC(=O)c1nn2c3cc(c(-c4cnc(C)nc4)cc13)OCCCCCCCCCC[C@@]13C[C@@H](C(=O)Nc4nc(Br)ccc4C)N(C(=O)C2)[C@@H]1C3 [Compound T-99] | < 1
23 | CC(=O)c1nn2c3cc(c(-c4cnc(C)nc4)cc13)OCCCCCCCCC[C@@]13C[C@@H](C(=O)Nc4nc(Br)ccc4C)N(C(=O)C2)[C@@H]1C3 [Compound T-100] | < 1
24 | CC(=O)c1nn2c3c(cc(-c4cnc(C)nc4)cc13)CCCCC=CCOC[C@@]13C[C@@H](C(=O)Nc4nc(C(F)(F)F)ccc4C)N(C(=O)C2)[C@@H]1C3 [Compound T-101] | < 1
25 | CC(=O)c1nn2c3c(cc(-c4cnc(C)nc4)cc13)CCCCCCCOC[C@@]13C[C@@H](C(=O)Nc4nc(C(F)(F)F)ccc4C)N(C(=O)C2)[C@@H]1C3 [Compound T-102] | < 1
26 | CC(=O)N[C@H]1CC=CCOCc2ccc(Br)nc2NC(=O)[C@@H]2C[C@]3(C[C@H]3N2C(=O)Cn2nc(C(C)=O)c3cc(-c4cnc(C)nc4)ccc32)CN(C)C1=O [Compound T-103] | < 1
27 | CC(=O)c1nn(CC(=O)N2[C@H]3C[C@]4(C[C@@H]24)Cn2ccc(n2)C=CCCC(F)(F)c2ccc(Br)nc2NC3=O)c2ccc(-c3cnc(C)nc3)cc12 [Compound T-104] | < 1
28 | CC(=O)c1nn(CC(=O)N2[C@H]3C[C@]4(C[C@@H]24)Cn2ccc(n2)C=CCCC(F)(F)c2ccc(Br)nc2NC3=O)c2cnc(-c3cnc(C)nc3)cc12 [Compound T-105] | < 1
29 | CC(=O)c1nn(CC(=O)N2C[C@@]3(F)COCCCCCCCc4ccc(Br)nc4NC(=O)[C@@H]2C3)c2ccc(-c3cnc(C)nc3)cc12 [Compound T-106] | < 1
30 | CC(=O)c1nn(CC(=O)N2C[C@@]3(F)COCCCCCCCc4ccc(Br)nc4NC(=O)[C@@H]2C3)c2c(C)nc(-c3cnc(C)nc3)cc12 [Compound T-107] | < 1
31 | CC(=O)c1nn2c3c(cc(-c4cnc(C)nc4)cc13)CCCCCCCOC[C@@]13C[C@@H](C(=O)Nc4nc(Br)ccc4C)N(C(=O)C2)[C@@H]1C3 [Compound T-108] | < 1
32 | CC(=O)c1nn2c3c(cc(-c4cnc(C)nc4)cc13)CCCCCCCCCC[C@@]13C[C@@H](C(=O)Nc4nc(Br)ccc4C)N(C(=O)C2)[C@@H]1C3 [Compound T-109] | < 1
33 | CC(=O)c1nn(CC(=O)N2[C@H]3C[C@]4(C[C@@H]24)CN(C)CCCCCCCc2ccc(Br)nc2NC3=O)c2ccc(-c3cnc(C)nc3)cc12 [Compound T-110] | < 1
34 | CC(=O)c1nn2c3c(cc(-c4cnc(C)nc4)cc13)CCCCCCCCC[C@@]13C[C@@H](C(=O)Nc4nc(Br)ccc4C)N(C(=O)C2)[C@@H]1C3 [Compound T-111] | < 1
35 | CC(=O)c1nn(CC(=O)N2[C@H]3C[C@@]4(CNC(=O)C(C)(C)C=CCOCc5ccc(Br)nc5NC3=O)C[C@@H]24)c2cnc(-c3cnc(C)nc3)cc12 [Compound T-112] | < 1
36 | CC(=O)c1nn(CC(=O)N2[C@H]3C[C@@]4(Cc5nc(no5)C=CCOCc5ccc(Br)nc5NC3=O)C[C@@H]24)c2c(C)cc(-c3cnc(C)nc3)cc12 [Compound T-113] | < 1
